Assay results as given in patent US7455855B2, “Delivering substance and drug delivery system using the same” (Santen Pharmaceutical Co., Ltd., priority 2000, dated 2008).
Where a name gives a salt, the structure may show the parent alone. Read-outs that look alike come from different tables or passages of the source.

Columns and labels:
[1] = Intraocular kinetic tests by fluorophotometry after injection into the vitreous body; type: in vivo, white rabbits; details: for half-life: rabbit, other: injection into the vitreous body (intravitreal)
Protocol: Intraocular kinetic tests were conducted by the following methods using the delivering substances A and B containing a fluorescence.
The same procedure as mentioned above was repeated except that fluorescein sodium was used instead of the delivering substances A and B to prepare a 10 μg/ml injection containing fluorescein sodium for comparison.
1) A mixed solution containing an aqueous ketamine hydrochloride solution (50 mg/ml) and an aqueous xylazine hydrochloride (50 mg/ml) in a ratio of 7:3 was administered intramuscularly to white rabbits to anesthetize.
2) A tropicamide (0.5%)/phenylephrine hydrochloride (0.5%) ophthalmic solution was instilled into both eyes to cause mydriasis in the both eyes.
3) The both eyes were anesthetized with an oxybuprocaine hydrochloride (0.5%) ophthalmic solution.
4) Each of the above-mentioned injection was administered to the center of a vitreous body from an ocular pars plana with a syringe equipped with a 30G needle.
5) Intraocular fluorescence intensity was measured with a fluorophotometry apparatus after the administration to the vitreous body at 1, 4, 7, 15, 35 and 56 days. A calibration curves were prepared, changes in concentration in the vitreous body and a retina were determined, and respective half-lives were calculated. The above-mentioned operations 1) and 2) were carried out before the intraocular fluorescence intensity was measured, too.
The numerical values in Tables 1 and 2 are the average of three samples respectively.

[2] = 3H-labelled, 100 μl/eye into vitreous body, moment method, 1 to 21 days, average of three samples

Row | Structure (SMILES) | half-life ([1]; retina, restated in hours in the text, read-out: half-life in the retina) [days] | half-life in the vitreous body ([1]; vitreous body, restated in hours in the text) | half-life ([1]; white, 10 μg/ml, retina, injection into the vitreous body, moment method from data measured 1 to 56 days after injection, average of three samples, read-out: Half-life (days) in the retina) [days] | half-life ([1]; white, vitreous body, injection into the vitreous body, moment method from data measured 1 to 35 days after injection, average of three samples, read-out: Half-life (days) in the vitreous body) [days] | Half-life (days) in the retina ([2]; retina) [days] | Half-life (days) in the vitreous body ([2]; vitreous body) [days]
1 | O=C1OC2(c3ccc(O)cc3Oc3cc(O)ccc32)c2ccccc21 [Fluorescein sodium, fluorescein sodium] | < 0.1 | less than five hours | < 0.1 | < 0.2 | – | –
2 | C[C@]12N[C@H](Cc3ccccc31)c1ccccc12 [Comparative substance X, [5R,10S]-(+)-5-methyl-10,11-dihydro-5H-dibenzo[a,d]cycloheptene-5,10-imine maleate] | – | – | – | – | 0.6 | 0.5
